How the values were obtained:
[1] = system: HT1080 FUCCI cells; assay: Live cell imaging of cell cycle in FUCCI cells; type: cell-based
Method: To further characterise the impact of ZNF827 on the cell cycle, live cell imaging was conducted with HT1080 FUCCI cells, to monitor cell progression through the cell cycle in real-time following ZNF827 depletion. The FUCCI (fluorescence ubiquitination cell cycle indicator) cells were stably transfected with fluorescence-labelled cell cycle-regulated proteins, geminin (labelled by GFP) and Cdt1 (labelled by RFP), which are only expressed during specific phases of the cell cycle (FIG. 9c). Their expressions are used to classify cells by cell cycle phase in a live cell setting.
HT1080 FUCCI cells were seeded in glass bottom 12-well plates (MakTek Corporation) the day before imaging at 30% confluency, to ensure that cells were actively cycling for the duration of the experiment. Media was replaced with phenol red free DMEM (Gibco) supplemented with 10% FCS and drug treatment immediately before transferring the plate to the microscope chamber. Imaging was performed on the Cell Observer Widefield Microscope (Zeiss) using a 20× objective at 37° C. with 10% CO2 in a XLmulti S1 full enclosure chamber. Cells were incubated in the XLmulti S1 full enclosure chamber for 2 hours prior to imaging. Three to four positions per well were captured with AxioCam (Zeiss) 506 Mono using ZEN software (Carl Zeiss) with images taken every 6 minutes for 60 hours. More than 15 cells were analysed at each position for each condition to confirm reproducibility.

[2] = system: HT1080 cells; assay: Sister chromatid exchange (SCE) assay in HT1080; type: cell-based; settings: 72 hr siRNA knockdown of ZNF827, topotecan 2 μg/mL 1 hr
Method: For the SCE assay, 20-25% confluent cells were cultured in fresh media supplemented with 7.5 μM […] (BrdU) and 2.5 μM BrdC (BrdU:BrdC 3:1 ratio; Sigma-Aldrich) for 32-48 hours depending on the mitotic index of the cell line. Cell cultures were treated with 100 ng/mL colcemid for the last 4 hours of incubation to accumulate mitotic cells. Cells were harvested by trypsinisation and centrifugation, and then incubated in hypotonic buffer for 10 minutes at 37° C. Swollen cells were fixed by gradually adding 1 mL of fresh ice-cold fixative (methanol/acetic acid 3:1), mixing by inversion and incubating on ice for 5 minutes. Cells were then collected by centrifugation at 1200 rpm for 8 minutes. 10 mL ice cold fixative was added to resuspend the cells followed by 5 minutes incubation on ice and centrifugation at 1200 rpm for 8 minutes. This fixing step was repeated another two times. Fixed cells were then resuspended in 500-1000 μL of ice-cold fixative, and dropped onto clean, dry microscope slides (HDS Surefrost, 50-100 μL cell solution per slide). To drop chromosomes, a clean dry slide was held over a 75° C. water bath, and the cell solution was dropped from a pipette onto the slide, which was quickly flipped and held close to the surface of the water bath for 5 seconds. […]

[3] = 72 hr siRNA knockdown in conjunction with topotecan 2 μg/mL 1 hr

siZNF827: Stealth RNAi siRNA ZNF827HSS135819 duplex oligoribonucleotides (Invitrogen), SEQ ID NO: 12 and 13 (chain 1 GGGCAGUCUUCUGGCUGAGAAAUCA; chain 2 UGAUUUCUCAGCCAGAAGACUGCCC; listed as RNA, further chemistry not given here)
G1 duration / G1 arrest ([1]; 72 hr siRNA knockdown alone): strong G1 arrest comparable to topotecan treatment | S/G2-M duration / G2/M arrest ([1]; 72 hr siRNA knockdown alone): no impact on G2/M by itself | G1 duration / G1 arrest [1, 3]: further exacerbated G1 arrest | S/G2-M duration / G2/M arrest [1, 3]: significant decrease in topotecan induced G2/M arrest | sister chromatid exchanges (SCEs) [2]: suppression of SCEs

Source: patent publication US20220305003A1, “METHODS OF TREATING CANCER WITH AN INHIBITOR OF ZNF827” (CHILDREN'S MEDICAL RESEARCH INSTITUTE, priority 2019, published 2022)
